The values that follow come from ChEMBL document CHEMBL4402545, “Subtype Selective γ-Aminobutyric Acid Type A Receptor (GABAAR) Modulators Acting at the Benzodiazepine Binding Site: An Update” (J Med Chem, 2020).

Experiment [1] addresses T1, Gamma-aminobutyric acid receptor subunit alpha-3 (Homo sapiens) (UniProt P34903).
T1 sequence (whole entry): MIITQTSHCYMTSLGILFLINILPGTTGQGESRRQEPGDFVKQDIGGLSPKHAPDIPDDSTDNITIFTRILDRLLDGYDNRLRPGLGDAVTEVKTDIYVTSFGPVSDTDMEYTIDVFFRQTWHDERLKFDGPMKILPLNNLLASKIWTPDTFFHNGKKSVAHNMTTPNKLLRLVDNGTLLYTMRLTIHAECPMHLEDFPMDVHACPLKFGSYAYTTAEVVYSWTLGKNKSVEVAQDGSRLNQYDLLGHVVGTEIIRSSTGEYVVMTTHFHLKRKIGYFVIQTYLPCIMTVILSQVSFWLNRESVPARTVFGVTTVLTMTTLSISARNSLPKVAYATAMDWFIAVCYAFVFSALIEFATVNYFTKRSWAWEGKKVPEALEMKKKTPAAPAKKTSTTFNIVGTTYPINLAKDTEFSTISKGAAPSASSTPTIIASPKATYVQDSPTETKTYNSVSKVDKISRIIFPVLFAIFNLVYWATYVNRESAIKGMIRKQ
In words: Binding affinity to GABA-A alpha3 (unknown origin) assessed as reduction in DMCM induced current relative to control.

Experiment [2] deals with T2, Gamma-aminobutyric acid receptor subunit alpha-1 (Homo sapiens) (UniProt P14867).
T2 sequence (whole entry): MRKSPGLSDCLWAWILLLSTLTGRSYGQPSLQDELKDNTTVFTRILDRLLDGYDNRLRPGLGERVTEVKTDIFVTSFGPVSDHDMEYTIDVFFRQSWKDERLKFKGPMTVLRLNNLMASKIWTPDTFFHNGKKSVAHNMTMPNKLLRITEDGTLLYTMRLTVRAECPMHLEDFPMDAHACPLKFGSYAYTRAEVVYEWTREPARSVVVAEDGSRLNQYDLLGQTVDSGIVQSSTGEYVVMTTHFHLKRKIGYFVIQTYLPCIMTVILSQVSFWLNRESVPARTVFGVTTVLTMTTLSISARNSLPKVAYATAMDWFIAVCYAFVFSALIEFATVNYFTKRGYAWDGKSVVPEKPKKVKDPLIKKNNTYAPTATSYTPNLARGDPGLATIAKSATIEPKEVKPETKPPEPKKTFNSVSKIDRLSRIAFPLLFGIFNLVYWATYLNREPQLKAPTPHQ
Description: Negative allosteric modulation of GABA-A alpha1 (unknown origin) assessed as reduction in DMCM induced current relative to control.

In experiment [3] the target is T3, Gamma-aminobutyric acid receptor subunit alpha-1 (Homo sapiens, UniProt P14867).
T3 sequence (P14867 whole entry): T2 sequence (whole entry)
In words: Binding affinity to GABA-A alpha1 (unknown origin).

The target of experiment [4] is T4, Gamma-aminobutyric acid receptor subunit alpha-2 (Homo sapiens, UniProt P47869).
T4 sequence (P47869 whole entry): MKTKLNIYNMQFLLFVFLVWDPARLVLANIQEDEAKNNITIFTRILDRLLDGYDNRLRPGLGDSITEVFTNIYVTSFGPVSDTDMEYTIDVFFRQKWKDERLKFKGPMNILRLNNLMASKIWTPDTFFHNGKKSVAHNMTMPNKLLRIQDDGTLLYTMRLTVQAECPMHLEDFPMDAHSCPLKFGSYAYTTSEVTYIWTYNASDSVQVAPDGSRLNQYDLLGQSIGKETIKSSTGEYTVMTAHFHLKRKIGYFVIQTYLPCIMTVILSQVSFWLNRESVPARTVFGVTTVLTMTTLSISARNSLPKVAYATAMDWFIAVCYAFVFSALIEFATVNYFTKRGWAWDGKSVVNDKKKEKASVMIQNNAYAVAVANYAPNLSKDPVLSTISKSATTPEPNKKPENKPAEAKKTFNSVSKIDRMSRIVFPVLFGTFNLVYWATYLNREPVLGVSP
Description: Binding affinity to GABA-A alpha2 (unknown origin).

For experiment [5], the target named is T5, Gamma-aminobutyric acid receptor subunit alpha-3 (Homo sapiens, UniProt P34903).
T5 sequence (P34903 whole entry): T1 sequence (whole entry)
Description: Binding affinity to GABA-A alpha3 (unknown origin).

Experiment [6] deals with T6, Gamma-aminobutyric acid receptor subunit alpha-5 (Homo sapiens) (UniProt P31644).
T6 sequence (whole entry): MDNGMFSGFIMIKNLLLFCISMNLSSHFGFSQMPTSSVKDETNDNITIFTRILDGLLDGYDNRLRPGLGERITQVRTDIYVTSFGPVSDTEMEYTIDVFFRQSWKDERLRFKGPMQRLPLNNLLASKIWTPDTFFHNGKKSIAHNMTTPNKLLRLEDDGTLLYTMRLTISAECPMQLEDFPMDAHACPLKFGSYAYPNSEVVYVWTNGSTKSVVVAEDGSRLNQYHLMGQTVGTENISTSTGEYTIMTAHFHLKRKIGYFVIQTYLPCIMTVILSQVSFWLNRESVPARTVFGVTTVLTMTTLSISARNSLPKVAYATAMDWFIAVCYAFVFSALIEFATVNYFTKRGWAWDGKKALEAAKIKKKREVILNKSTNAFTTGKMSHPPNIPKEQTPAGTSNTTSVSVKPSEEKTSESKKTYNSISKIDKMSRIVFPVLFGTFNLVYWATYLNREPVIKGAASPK
In words: Binding affinity to GABA-A alpha5 (unknown origin) assessed as reduction in DMCM induced current relative to control.

Experiment [7] concerns the target T7, Gamma-aminobutyric acid receptor subunit alpha-5 (Homo sapiens, UniProt P31644).
T7 sequence (P31644 whole entry): T6 sequence (whole entry)
In words: Binding affinity to GABA-A alpha5 (unknown origin).

Experiment [8] deals with T8, Gamma-aminobutyric acid receptor subunit alpha-2 (Homo sapiens) (UniProt P47869).
T8 sequence (whole entry): T4 sequence (P47869 whole entry)
In words: Binding affinity to GABA-A alpha2 (unknown origin) assessed as reduction in DMCM induced current relative to control.

In experiment [9] the target is T8, Gamma-aminobutyric acid receptor subunit alpha-2 (Homo sapiens). Description: Binding affinity to GABA-A alpha2 (unknown origin) assessed as increase in induced current relative to control.
Experiment [10] addresses T2, Gamma-aminobutyric acid receptor subunit alpha-1 (Homo sapiens). In words: Binding affinity to GABA-A alpha1 (unknown origin) assessed as increase in induced current relative to control.
Experiment [11] deals with T6, Gamma-aminobutyric acid receptor subunit alpha-5 (Homo sapiens). In words: Binding affinity to GABA-A alpha5 (unknown origin) assessed as increase in induced current relative to control.
Experiment [12] has as its target T1, Gamma-aminobutyric acid receptor subunit alpha-3 (Homo sapiens). Description: Binding affinity to GABA-A alpha3 (unknown origin) assessed as increase in induced current relative to control.
For experiment [13], the species on record is Homo sapiens. Description: Selectivity ratio of Ki for binding affinity to GABAA alpha3beta3gamma2 (unknown origin) to Ki for binding affinity to GABAA alpha5beta3gamma2 (unknown origin).
The species entered for experiment [14] is Homo sapiens. Description: Selectivity ratio of Ki for binding affinity to GABAA alpha2beta3gamma2 (unknown origin) to Ki for binding affinity to GABAA alpha5beta3gamma2 (unknown origin).
The species entered for experiment [15] is Homo sapiens. Description: Selectivity ratio of Ki for binding affinity to GABAA alpha1beta3gamma2 (unknown origin) to Ki for binding affinity to GABAA alpha5beta3gamma2 (unknown origin).
Experiment [16] deals with GABA-A receptor; alpha-5/beta-3/gamma-2 (Homo sapiens) (UniProt P18507+P28472+P31644). Description: Negative allosteric modulation of GABAA alpha5beta3gamma2 (unknown origin) expressed in Xenopus laevis oocytes assessed as inhibition of GABA-induced current response at -60 mV holding potential by two electrode voltage clamp method relative to control. Also on record: scale not given: the % may be the effect or the level left. It is filed as cell-based. On the technique in general: In two-electrode clamp one electrode senses voltage and the other passes current.

Structures are written as SMILES.

In general, Ki refers to a measure of affinity in units of concentration, obtained from inhibition or displacement. Turning to `FC(F)c1ncn2c1Cn1ncnc1-c1cc(Br)ccc1-2`, the Efficacy in experiment [1] was 2%; in experiment [2] it was -3%; in experiment [6] it was -35%; in experiment [8], -4%. The Ki in [3] is 174 nM; in [4] it was 185 nM; in experiment [5], 80 nM; in experiment [7], 4.6 nM.

Take `Cc1onc(-c2ccc(F)cc2)c1COc1ccc(C(=O)N2CCS(=O)(=O)CC2)cn1` [BASMISANIL]: the Efficacy was -2% in [1], -4% in [2], -39% in experiment [6] and -6% in experiment [8]. The Ki in experiment [3] is 985 nM; in experiment [4], 502 nM; in experiment [5], 489 nM; in [7] it was 4.7 nM.

Take `c1ccc(-c2nnc3c4c(c(OCc5ccccn5)nn23)C2CCC4CC2)cc1`: the values for the inhibition constant Ki in [3], in [4] and in experiment [5] were 71 nM, 26 nM and 12 nM, respectively.

`C#Cc1ccc2c(c1)C(c1ccccc1F)=N[C@@H](C)c1c(C(=O)OCC)ncn1-2`: the fold change (FC) in [9] was found to be 0.57; in experiment [10] it was 0.3; in experiment [11], 1.19; in experiment [12], 0.31.

With `C#Cc1ccc2c(c1)C(c1ccccc1F)=N[C@H](C)c1c(C(=O)N(C)C)ncn1-2`, the Ratio Ki in the experiment filed under Homo sapiens [13], in the experiment listed under Homo sapiens [14] and in the experiment filed under Homo sapiens [15] was 6 to 15 throughout. Also, the inhibition constant (Ki) in [3] was 55000 nM; in experiment [4], 30000 nM; in experiment [5], 63000 nM; in experiment [7], 5000 nM. The fold change (FC) in [10] was determined as 0.65; in experiment [11], 1.46.

For `C#Cc1ccc2c(c1)C(c1ccccn1)=NCc1c(-c3cnco3)ncn1-2`, the fold change (FC) turned out to be 0.66 in experiment [9], 0.35 in experiment [10] and 0.77 in [12].

Consider `Clc1ccc2c(c1)-c1ncnn1Cc1c(Cl)ncn1-2`, for which the Efficacy was -11% in [1], -3% in experiment [2], -40% in experiment [6] and -9% in [8]. Besides, the inhibition constant Ki stood at 15 nM in [3], 24 nM in [4], 14 nM in [5] and 2 nM in [7].

Turning to `CCCNC(=O)c1nnc2c(-c3cc(OC)ccc3OC)cccc2c1N` [AZD6280], the results for the Ki in experiment [3], in [5] and in [7] were 0.5 nM, 3.1 nM and 1680 nM, respectively.

On to `C#Cc1ccc2c(c1)C(c1ccccn1)=NCc1c(C(=O)OC)ncn1-2`, for which the inhibitory constant (Ki) in experiment [4] and in experiment [5] was 1000 nM throughout. The Activity came to 140% in experiment [9], 25% in experiment [10], 11% in [11] and 129% in experiment [12].

Regarding `C#Cc1ccc2c(c1)C(=O)N(C)Cc1c(C(=O)OCC)ncn1-2`, the Activity in experiment [16] was found to be 36%.

Regarding `CC(C)(O)c1ccc2c(c1)ncn2-c1cccc(-c2cc(C#N)ccc2Cl)n1`, the fold change (FC) in [9] was 0.27; in experiment [10] it was -0.1; in experiment [11], 0.05; in experiment [12], 0.47.

In the case of `CCOC(=O)c1ncn2c1[C@@H]1CCCN1C(=O)c1cc(OC)ccc1-2`, the Ratio Ki in the experiment listed under Homo sapiens [13], in the experiment filed under Homo sapiens [14] and in the experiment listed under Homo sapiens [15] was 50 to 100 each time. Further, the Ki in experiment [3], in experiment [4] and in experiment [5] was 17 to 360 nM each time.

Consider `COCc1ncn2c1CN(C)C(=O)c1cc(Cl)ccc1-2`, for which the Efficacy in experiment [1] was 45%; in [2] it was 20%; in [6] it was -20%; in experiment [8], 15%. Also, the Ratio Ki in the experiment filed under Homo sapiens [13], in the experiment filed under Homo sapiens [14] and in the experiment listed under Homo sapiens [15] was 30 to 60 each time. Further, the Ki was found to be 362 nM in experiment [3], 180 nM in experiment [4], 328 nM in experiment [5] and 6 nM in experiment [7]. The Activity in experiment [16] was determined as 17%.

`C#Cc1ccc2c(c1)C(c1ccccc1F)=N[C@H](C)c1c(C(=O)NC)ncn1-2`: the inhibition constant (Ki) in [3] is 850 nM; in experiment [4] it was 360 nM; in experiment [5], 660 nM; in experiment [7] it was 55 nM. Besides, the fold change (FC) was 0.5 in experiment [9], 0.11 in experiment [10], 2.48 in experiment [11] and 0.2 in experiment [12].

Take `C#Cc1ccc2c(c1)C(c1ccccc1F)=N[C@H](C)c1c(C(=O)NC3CC3)ncn1-2`: the Ratio Ki in the experiment listed under Homo sapiens [13], in the experiment listed under Homo sapiens [14] and in the experiment filed under Homo sapiens [15] was 6 to 15 throughout. The Ki in experiment [3] was 542 nM; in experiment [4], 789 nM; in [5] it was 480 nM; in [7], 79 nM. Moreover, the fold change (FC) in experiment [10] came out at 1.22; in [11] it was 1.23.

Turning to `C#Cc1ccc2c(c1)C(c1ccccc1F)=N[C@H](C)c1c(C(=O)OCC)ncn1-2`, the fold change (FC) in experiment [9] came out at 0.19; in experiment [10], 0.25; in experiment [11], 1.19; in experiment [12], 0.18.

For `C#Cc1ccc2c(c1)C(c1ccccn1)=NCc1c(C(=O)OCC)ncn1-2`, the fold change (FC) amounted to 0.52 in experiment [9], 0.27 in experiment [10], 0.23 in [11] and 0.36 in experiment [12].
